From paper PMC10707934, “Design and Synthesis of Novel α-Methylchalcone Derivatives, Anti-Cervical Cancer Activity, and Reversal of Drug Resistance in HeLa/DDP Cells” (Molecules, 2023)

Tests used:
Format in all cases: cell-based, human
[1] = system: HeLa cells; test: MTT anti-proliferation assay, HeLa; settings: 48 h, mean ± SD
Protocol: All cell types, at a volume of 200 µL per well, were inoculated in 96-well plates at a density of 2.5 × 10^4 cells / mL and cultured for 24 h in an incubator with 5% CO2 at 37 °C. The old culture medium was replaced with 200 µL of fresh medium per well containing positive compounds, at concentrations of 1, 6.25, 12.5, 25, 50, and 100 μM. After 48 h of culture, 20 µL per well of 5 mg·mL^−1 MTT solution was added. After 4 h of culture, the old solution was discarded, and 150 µL per well of DMSO solution was added. Using an enzyme labeler (Thermo Fisher Scientific, Multiskan GO, Waltham, MA, USA), the plates were shaken for 10 min, OD values were determined at 490 nm, and the inhibition rate was calculated. Non-linear regression fitting of the cell growth rate was carried out using SPSS 23.0, and the IC50 of the compound was calculated. The inhibition rate was calculated using the formula: [(ODempty − ODtest)/(ODempty − ODnegative group)] × 100%, (ODempty blank group absorbance, ODtest absorbance of administration group, ODnegative group without cell culture medium). Each group contained six compound holes, and the experimental results averaged three trials. Complete medium containing only cells was used as the blank control; a complete medium without cells as was used as the negative control; and cisplatin, paclitaxel, and adriamycin were used as the positive controls. The concentration gradient was the same as that used for compounds 3a–3p. […]

[2] = system: SiHa cells; test: MTT anti-proliferation assay, SiHa; settings: 48 h, mean ± SD
Protocol: (§1) All cell types, at a volume of 200 µL per well, were inoculated in 96-well plates at a density of 2.5 × 10^4 cells / mL and cultured for 24 h in an incubator with 5% CO2 at 37 °C. The old culture medium was replaced with 200 µL of fresh medium per well containing positive compounds, at concentrations of 1, 6.25, 12.5, 25, 50, and 100 μM. After 48 h of culture, 20 µL per well of 5 mg·mL^−1 MTT solution was added. After 4 h of culture, the old solution was discarded, and 150 µL per well of DMSO solution was added. Using an enzyme labeler (Thermo Fisher Scientific, Multiskan GO, Waltham, MA, USA), the plates were shaken for 10 min, OD values were determined at 490 nm, and the inhibition rate was calculated. Non-linear regression fitting of the cell growth rate was carried out using SPSS 23.0, and the IC50 of the compound was calculated. The inhibition rate was calculated using the formula: [(ODempty − ODtest)/(ODempty − ODnegative group)] × 100%, (ODempty blank group absorbance, ODtest absorbance of administration group, ODnegative group without cell culture medium). Each group contained six compound holes, and the experimental results averaged three trials. Complete medium containing only cells was used as the blank control; a complete medium without cells as was used as the negative control; and cisplatin, paclitaxel, and adriamycin were used as the positive controls. The concentration gradient was the same as that used for compounds 3a–3p.

[3] = system: HeLa/DDP cells; test: MTT anti-cisplatin-resistant cervical cancer activity, HeLa/DDP; settings: for resistance index (RI): HeLa/DDP versus parental HeLa; for resistance index (RI) / IC50: 48 h; for IC50: HeLa/DDP, MTT, mean ± SD
Protocol: as §1
To mitigate the detrimental consequences arising from the fixation of resistance reversal agents, concentrations that yielded a tumor cell proliferation rate reduction of less than 10% were selected. Consequently, the inhibitory efficacy of compound 3k against HeLa/DDP cells was assessed in conjunction with cisplatin at concentrations of 0.25, 0.5, and 1 μM. The experimental procedure employed was akin to that elucidated in Section 3.3.2. The impact of verapamil (6 μM) and 3k (0.25, 0.5, and 1 μM) on P-gp expression was ascertained via Western blot experiments, employing the same methodology delineated in Section 3.3.4.

[4] = system: HeLa cells; test: Annexin V-FITC/PI pro-apoptosis assay, HeLa; settings: 24 h
Protocol: Cell fluid (2 mL per well) at a concentration of 1.5 × 10^5 cells / mL was added to a 6-well plate and cultured in a cell incubator with 5% CO2 at 37 °C for 24 h. The old solution was discarded; 2 mL of the medium containing compound 3k was added to each well at a concentration gradient of 2.5, 5, and 10 μM; and the experiment was repeated three times at each concentration. Complete medium containing only cells was used as a blank control group, and 20 μM of cisplatin injection and chalcone was used as a positive control. Cells were harvested following a 24 h incubation period, adhering to the guidelines provided with the BD kit (BD Biosciences Pharmingen, 556547, 10975 Torreyana Road, San Diego, CA, USA). Subsequently, the cells were subjected to staining in a light-restricted environment at ambient temperature for a duration of 15 min, followed by filtration and analysis via flow cytometry.

[5] = system: HeLa cells; test: Transwell Matrigel invasion assay, HeLa
Protocol: The Transwell ([…], Corning Incorporated, New York, NY, USA) was precoated using 50 μL Matrigel for 5 h at 37 °C to achieve solidification. HeLa cells was collected and suspended in a serum-free medium containing varying concentrations (0, 2.5, 5, and 10 μM) of compound 3k, along with 20 μM cisplatin and chalcone. These cell suspensions were then added to the upper wells of a permeabilization chamber at a density of 5 × 10^5 cells/mL. In the lower wells, 600 μL of DMEM containing 10% FBS was added, which had been prepared using 50 μL of Matrigel (diluted 1:8 with serum-free medium from Corning/BD Biosciences). After 24 h of incubation at 37 °C, the invasion cells were fixed using 4% paraformaldehyde and stained using 0.1% crystal violet for 30 min. Then, the chambers were washed using PBS and left to dry. Images were photographed using an inverted fluorescence microscope (Leica Instruments Co., Ltd., Microsystems CMS GmbH, Weizler, Hesse, Germany) and counted using Image J software (V1.8.0.112) for three independent fields randomly.

[6] = system: HeLa/DDP cells; test: Transwell migration assay, HeLa/DDP; settings: 24 h, control 497
Protocol: HeLa (5 × 10^4 cells) was suspended in 200 μL of FBS-free medium. The top chamber contained the vehicle and various concentrations of compound 3k (2.5, 5, and 10 μM), cisplatin (20 μM) and chalcone (20 μM). The lower chamber was filled with 600 μL of medium containing 10% FBS. After incubating at 37 °C for 24 h, the cells on the top side of the Transwell membrane were removed with a cotton tip. Cells were fixed and stained with 4% paraformaldehyde (LEAGENE BIOTECHNOLOGY, Cat:DF0135, Lot:0823A23, Zhongguancun, Haidian District, Beijing, China) and 0.1% crystal violet solutions (Leagene Biotechnology, Cat:DZ0055, Lot:0508A23, Zhongguancun, Haidian District, Beijing, China) for 30 min to fix cells trapped on the perforated side of the membrane.
The experimental methods for the effects of compound 3k, cisplatin, and chalcone on HeLa/DDP cell invasion and migration were the same as in Section 3.3.6.

IC50 ([1]; Homo sapiens)	IC50 ([3]; Homo sapiens)	Compound	IC50 [1]	IC50 [2]	resistance index (RI) [3]	IC50 [3]	pro-apoptotic rate ([4]; 20 μM)	number of cells undergoing invasion ([5]; 24 h, 20 μM)	number of migrated cells ([6]; 20 μM)	IC50 ([2]; Homo sapiens)	inhibition rate against HeLa/DDP cell lines ([3]; HeLa/DDP, 0.25, 0.5, or 1 μM)	pro-apoptotic rate ([4]; 2.5 μM)	pro-apoptotic rate ([4]; 5 μM)	pro-apoptotic rate ([4]; 10 μM)	number of cells undergoing invasion compared to the control group ([5]; 24 h, 2.5, 5, and 10 μM)	number of migrated cells ([6]; 2.5 μM)	number of migrated cells ([6]; 5 μM)	number of migrated cells ([6]; 10 μM)
–	–	N.N.[Cl][Pt][Cl] [Cisplatin, cisplatin, reference compound]	13 ± 1.82 µM	20.7 ± 1.85 µM	7.90	103 ± 3.6 µM	46.7%	237	395	–	–	–	–	–	–	–	–	–
9.05 ± 0.53 µM	9.72 ± 0.73 µM	COc1ccc(/C=C(\C)C(=O)c2ccc(Cl)c(Cl)c2)cc1OC [Compound 3k, (E)-1-(3,4-Dichlorophenyl)-3-(3,4-dimethoxyphenyl)-2-methylprop-2-en-1-one]	–	–	1.07	–	–	–	–	14.5 ± 0.98 µM	less than 10%	29.6%	47.2%	64.8%	significant decrease in the number of cells undergoing invasion	251	179	113
